Row | Compound | melting point
1 | O=c1c2c(CCc3ccc([N+](=O)[O-])cc3)n[nH]c2c2cccnc2n1-c1ccccc1 (hydrate or solvate) [Example 11, 3-[2-(4-nitrophenyl)ethyl]-5-phenyl-1H-pyrazolo[4,3-c][1,8]naphthyridin-4 (5H)-one] | 260 to 262 °C
2 | O=c1c2c(CCc3cccc([N+](=O)[O-])c3)n[nH]c2c2cccnc2n1-c1ccccc1 (hydrate or solvate) [Example 15, 3-[2-(3-nitrophenyl)ethyl]-5-phenyl-1H-pyrazolo[4,3-c][1,8]naphthyridin-4 (5H)-one] | 245 to 247 °C
3 | O=c1c2c(CCc3ccccc3[N+](=O)[O-])n[nH]c2c2cccnc2n1-c1ccccc1 (hydrate or solvate) [Example 16, 3-[2-(2-nitrophenyl)ethyl]-5-phenyl-1H-pyrazolo[4,3-c][1,8]naphthyridin-4 (5H)-one] | 333 to 335 °C
4 | N#Cc1ccccc1CCc1n[nH]c2c1c(=O)n(-c1ccccc1)c1ncccc21 (hydrate or solvate) [Example 17, 3-[2-(2-cyanophenyl)ethyl]-5-phenyl-1H-pyrazolo[4,3-c][1,8]naphthyridin-4 (5H)-one] | 315.5 to 316.5 °C
5 | N#Cc1cccc(CCc2n[nH]c3c2c(=O)n(-c2ccccc2)c2ncccc32)c1 (hydrate or solvate) [Example 18, 3-[2-(3-cyanophenyl)ethyl]-5-phenyl-1H-pyrazolo[4,3-c][1,8]naphthyridin-4 (5H)-one] | 219.5 to 224.5 °C
6 | COc1cccc(Cc2n[nH]c3c2c(=O)n(-c2ccccc2)c2ncccc32)c1 (hydrate or solvate) [Example 20, 3-(3-methoxybenzyl)-5-phenyl-1H-pyrazolo[4,3-c][1,8]naphthyridin-4 (5H)-one] | 234 to 236 °C
7 | O=c1c2c(Cc3cccc([N+](=O)[O-])c3)n[nH]c2c2cccnc2n1-c1ccccc1 (hydrate or solvate) [Example 25, 3-(3-nitrobenzyl)-5-phenyl-1H-pyrazolo[4,3-c][1,8]naphthyridin-4 (5H)-one] | > 320 °C
8 | COc1ccc(Cc2n[nH]c3c2c(=O)n(-c2ccccc2)c2ncccc32)cc1OC (hydrate or solvate) [Example 28, 3-(3,4-dimethoxybenzyl)-5-phenyl-1H-pyrazolo[4,3-c][1,8]naphthyridin-4 (5H)-one] | 230 to 232 °C
9 | COc1cc(Cc2n[nH]c3c2c(=O)n(-c2ccccc2)c2ncccc32)cc(OC)c1 (hydrate or solvate) [Example 29, 3-(3,5-dimethoxybenzyl)-5-phenyl-1H-pyrazolo[4,3-c][1,8]naphthyridin-4 (5H)-one] | 258 to 259 °C
10 | N#Cc1ccc(Cc2n[nH]c3c2c(=O)n(-c2ccccc2)c2ncccc32)cc1 (hydrate or solvate) [Example 31, 3-(4-cyanobenzyl)-5-phenyl-1H-pyrazolo[4,3-c][1,8]naphthyridin-4 (5H)-one] | 316 to 318 °C (dec.)
11 | CS(=O)(=O)c1ccc(Cc2n[nH]c3c2c(=O)n(-c2ccccc2)c2ncccc32)cc1 (hydrate or solvate) [Example 34, 3-(4-methylsulfonylbenzyl)-5-phenyl-1H-pyrazolo[4,3-c][1,8]naphthyridin-4 (5H)-one] | 311.5 to 312.5 °C
12 | O=C(O)c1ccccc1CCc1n[nH]c2c1c(=O)n(-c1ccccc1)c1ncccc21 (hydrate or solvate) [Example 37, 3-[2-(2-carboxyphenyl)ethyl]-5-phenyl-1H-pyrazolo[4,3-c][1,8]naphthyridin-4 (5H)-one] | 302 to 308 °C
13 | Nc1ccc(CCc2n[nH]c3c2c(=O)n(-c2ccccc2)c2ncccc32)cc1 (hydrate or solvate) [Example No. 13, 3-[2-(4-aminophenyl)ethyl]-5-phenyl-1H-pyrazolo[4,3-c][1,8]naphthyridin-4 (5H)-one] | > 310 °C
14 | O=C(O)c1ccc(CCc2n[nH]c3c2c(=O)n(-c2ccccc2)c2ncccc32)cc1 (hydrate or solvate) [Example No. 14, 3-[2-(4-carboxyphenyl)ethyl]-5-phenyl-1H-pyrazolo[4,3-c][1,8]naphthyridin-4 (5H)-one] | 318 to 320 °C
15 | COc1ccc(Cc2n[nH]c3c2c(=O)n(-c2ccccc2)c2ncccc32)cc1 (hydrate or solvate) [Example No. 21, 3-(4-methoxybenzyl)-5-phenyl-1H-pyrazolo[4,3-c][1,8]naphthyridin-4 (5H)-one] | 300 to 302 °C
16 | COc1ccccc1Cc1n[nH]c2c1c(=O)n(-c1ccccc1)c1ncccc21 (hydrate or solvate) [Example No. 22, 3-(2-methoxybenzyl)-5-phenyl-1H-pyrazolo[4,3-c][1,8]naphthyridin-4 (5H)-one] | 276 to 277 °C
17 | O=c1c2c(Cc3cccs3)n[nH]c2c2cccnc2n1-c1ccccc1 (hydrate or solvate) [Example No. 23, 3-(2-thienylmethyl)-5-phenyl-1H-pyrazolo[4,3-c][1,8]naphthyridin-4 (5H)-one] | 282 to 284 °C
18 | O=c1c2c(Cc3ccccc3[N+](=O)[O-])n[nH]c2c2cccnc2n1-c1ccccc1 (hydrate or solvate) [Example No. 26, 3-(2-nitrobenzyl)-5-phenyl-1H-pyrazolo[4,3-c][1,8]naphthyridin-4 (5H)-one] | 318 to 320 °C (dec.)
19 | COc1ccc(OC)c(Cc2n[nH]c3c2c(=O)n(-c2ccccc2)c2ncccc32)c1 (hydrate or solvate) [Example No. 27, 3-(2,5-dimethoxybenzyl)-5-phenyl-1H-pyrazolo[4,3-c][1,8]naphthyridin-4 (5H)-one] | 248 to 250 °C
20 | COc1ccc(Cc2n[nH]c3c2c(=O)n(-c2ccccc2)c2ncccc32)c(OC)c1 (hydrate or solvate) [Example No. 30, 3-(2,4-dimethoxybenzyl)-5-phenyl-1H-pyrazolo[4,3-c][1,8]naphthyridin-4 (5H)-one] | 266 to 267 °C
21 | CCOC(=O)Cc1ccc(Cc2n[nH]c3c2c(=O)n(-c2ccccc2)c2ncccc32)cc1 (hydrate or solvate) [Example No. 32, 3-(4-ethoxycarbonylmethylbenzyl)-5-phenyl-1H-pyrazolo[4,3-c][1,8]naphthyridin-4 (5H)-one] | 263 to 264 °C
22 | O=c1c2c(CCc3ccncc3)n[nH]c2c2cccnc2n1-c1ccccc1 [Example 1, 5-phenyl-3-[2-(pyridin-4-yl)ethyl]-1H-pyrazolo[4,3-c][1,8]-naphthyridin-4 (5H)-one] | 267 to 269 °C
23 | O=c1c2c(CCc3cccnc3)n[nH]c2c2cccnc2n1-c1ccccc1 [Example 3, 5-phenyl-3-[2-(pyridin-3-yl)ethyl]-1H-pyrazolo[4,3-c][1,8]-naphthyridin-4 (5H)-one] | 322 °C (dec.)
24 | O=c1c2c(Cc3cccnc3)n[nH]c2c2cccnc2n1-c1ccccc1 [Example 4, 5-phenyl-3-(pyridin-3-yl)methyl-1H-pyrazolo[4,3-c][1,8]-naphthyridin-4 (5H)-one] | 306 °C (dec.)
25 | Nc1cccc(-n2c(=O)c3c(CCc4ccncc4)n[nH]c3c3cccnc32)c1 [Example 8, 5-(3-aminophenyl)-3-[2-(pyridin-4-yl)ethyl]-1H-pyrazolo[4,3-c][1,8]naphthyridin-4 (5H)-one] | 261 to 263 °C

Reference: patent US7608716B2, “Pyrazolonaphthyridine derivative” (Aska Pharmaceutical Co., Ltd., priority 2002, dated 2009)
